Earlier results on one substance are cited in patent publication US20250250278A2, “BRIARANE COMPOUNDS AND THEIR USE” (National Health Research Institutes, priority 2022, published 2025).

The subject of data set [1] is cyclooxygenase-2 (COX-2) mRNA. The note with it: LPS-challenged murine macrophages.
For data set [2], the system named is inducible nitric oxide synthase (iNOS) mRNA. The note with it: LPS-challenged murine macrophages.
Assay in data set [3]: not given
The source holds these as a separate data set.

In the case of excavatolide B [ExcB], the bioavailability result is listed as “low”. In addition, the “inhibition of mRNA expression of COX-2” value in data set [1] is recorded as “significantly inhibiting”. For the same substance, the “inhibition of mRNA expression of iNOS” value in data set [2] is on record as “significantly inhibiting”. Moreover, the solubility in water entry in data set [3] was “poor”.
